Molecules are shown by their SMILES.

Broadly, the IC50 is the concentration that gives 50% inhibition.

This assay addresses T1, Monoglyceride lipase (Homo sapiens, UniProt Q99685).
T1 sequence (Q99685 whole entry): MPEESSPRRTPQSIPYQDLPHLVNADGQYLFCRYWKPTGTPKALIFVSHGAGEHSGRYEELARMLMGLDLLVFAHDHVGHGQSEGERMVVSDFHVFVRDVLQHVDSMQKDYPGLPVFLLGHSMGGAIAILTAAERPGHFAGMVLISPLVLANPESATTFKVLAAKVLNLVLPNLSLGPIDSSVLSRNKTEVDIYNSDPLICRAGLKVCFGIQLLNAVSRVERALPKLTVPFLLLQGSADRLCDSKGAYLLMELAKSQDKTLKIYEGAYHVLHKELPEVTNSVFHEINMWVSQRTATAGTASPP
The assay is described as follows: In Vitro Competitive Activity-Based Protein Profiling: Proteomes (mouse brain membrane fraction for mouse assays; human prefrontal cortex membrane fractions for human assays) (50 mL, 1.0 mg/mL total protein concentration) were preincubated with varying concentrations of inhibitors at 37° C. After 30 min, FP-Rh (1.0 mL, 50 mM in DMSO) was added and the mixture was incubated for another 30 min at 37° C.

Regarding `O=C(O)c1ccn(C(=O)N2C[C@H]3C[C@H](Oc4cc(Cl)ccc4C(F)(F)F)C[C@H]3C2)n1`, the IC50 is less than 100 nM.

The values are drawn from ChEMBL document CHEMBL5728291, “Pyrazole MAGL inhibitors” (2021).
